The record followed here is ChEMBL document CHEMBL3861954, “A novel bis-furan scaffold for transthyretin stabilization and amyloid inhibition” (Eur J Med Chem, 2016).

Data set [1] in a line: Cytotoxicity against human HepG2 cells assessed as decrease in cell viability after 72 hrs by resazurin reduction assay. The data set is classed as toxicity, cell-based. As to conditions: read-out: ID50.
Data set [2] concerns the target T1, Transthyretin (Homo sapiens, UniProt P02766). In words: Displacement of [125I]-T4 from wild type TTR in human plasma after 1 hr by PAGE analysis. The data set is classed as cell-free.
Data set [3] concerns the target T1, Transthyretin. Briefly: Stabilization of recombinant human wild type TTR expressed in Escherichia coli BL21 (DE3) assessed as inhibition of amyloid beta formation by measuring turbidity at 0.5 to 2 times molar concentration preincubated for 30 mins followed by lowering pH from 7.2 to 4.4 measured after 72 hrs by microplate spectrophotometric method.
Data set [4] addresses T1, Transthyretin. Briefly: Stabilization of wild type TTR tetramer in human plasma assessed as tetramer to total protein ratio preincubated overnight at 4 degC followed by further incubation at room temperature for 1 hr in presence of 4M urea by isoelectric focusing densitometric analysis.
Data set [5] relates to Transthyretin (Homo sapiens), P02766 [V50M]. Briefly: Stabilization of TTR V30M mutant tetramer in human plasma assessed as tetramer to total protein ratio preincubated overnight at 4 degC followed by further incubation at room temperature for 1 hr in presence of 4M urea by isoelectric focusing densitometric analysis.
In data set [6] the target is T1, Transthyretin. Briefly: Stabilization of recombinant human wild type TTR expressed in Escherichia coli BL21 (DE3) assessed as inhibition of amyloid beta formation by measuring turbidity preincubated for 30 mins followed by lowering pH from 7.2 to 4.4 measured after 72 hrs by microplate spectrophotometric method.
In data set [7] the target is T1, Transthyretin. Briefly: Binding affinity to recombinant human wild type TTR expressed in Escherichia coli BL21 (DE3) assessed as dissociation constants for first binding site of TTR by isothermal titration calorimetric method.
In data set [8] the target is T1, Transthyretin. Briefly: Binding affinity to recombinant human wild type TTR expressed in Escherichia coli BL21 (DE3) assessed as dissociation constants for second binding site of TTR by isothermal titration calorimetric method. In general terms: Isothermal titration calorimetry measures the heat released or taken up as one component is titrated into another.

Calls of active or inactive are those of the source. No cut-off for these calls is given here.

For `O=C(O)c1ccc2nc(-c3cc(Cl)cc(Cl)c3)oc2c1`, the CC50 at 72 h in data set [1] stood at 247 µM. In addition, the inhibition entry in data set [2] is “Active”.
In the case of `N[C@@H](Cc1cc(I)c(Oc2cc(I)c(O)c(I)c2)c(I)c1)C(=O)O`, in data set [3], the inhibition entry was “Active”.
In the case of `O=C(O)c1cc(-c2ccc(F)cc2F)cc(I)c1O`, the Ratio in data set [4] was found to be 0.768; in data set [5], 0.445. In data set [2], the inhibition entry was “Active”.
On to `Cc1c(C(=O)O)coc1/C=C/c1ccc(Cl)o1`, for which, in data set [1], the CC50 at 72 h is 181 µM. Moreover, the figures for the Ratio in data set [4] and in data set [5] were 0.961 and 0.481, respectively. Besides, the inhibition result in data set [2] is “Active”.
In general, IC50 refers to the concentration that gives 50% inhibition. As usually defined, the Kd is the free concentration of one partner at which half of the binding sites on the other are occupied at equilibrium, for simple one-to-one binding. Turning to `Cc1oc(/C=C/c2ccc(Cl)o2)cc1C(=O)O`, the IC50 in data set [6] was 2490 nM. Moreover, the CC50 at 72 h in data set [1] is 225 µM. Further, the Kd in data set [7] is 3.9 nM; in data set [8], 278 nM.
With `Oc1c(Cl)cc(-c2cc(Cl)c(O)c(Cl)c2)cc1Cl`, in data set [1], the CC50 at 72 h worked out at 60 µM.
